Patent publication US12043632B2, “6-heteroaryloxy benzimidazoles and azabenzimidazoles as JAK2 inhibitors” (Ajax Therapeutics, Inc., priority 2020, dated 2024)

Target: T1, JAK2 (JH1domain-catalytic, Y1007F,Y1008F) kinase (Homo sapiens, UniProt O60674, Y1007F/Y1008F)
T1 construct: JAK2 (JH1domain-catalytic, Y1007F,Y1008F) kinase was expressed as N-terminal fusion; made in house; host or cells: transiently transfected HEK293 cells
Assay: JAK2 JH1 Domain Binding Assay
Conditions: qPCR readout

T1 sequence (O60674 849-1124 Y1007F/Y1008F limits assumed): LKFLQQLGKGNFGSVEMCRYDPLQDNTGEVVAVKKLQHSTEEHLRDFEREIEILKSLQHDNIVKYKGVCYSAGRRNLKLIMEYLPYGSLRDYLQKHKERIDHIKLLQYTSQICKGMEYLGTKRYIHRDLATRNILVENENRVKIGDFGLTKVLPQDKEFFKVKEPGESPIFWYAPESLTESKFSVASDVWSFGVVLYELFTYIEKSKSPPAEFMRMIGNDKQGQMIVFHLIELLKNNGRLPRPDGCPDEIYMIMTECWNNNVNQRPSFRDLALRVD

Row | Kd | SMILES
1 | 10 to 50 nM | COc1c(Oc2cnn3ccncc23)cnc2nc(Nc3cc(C4CC4)cn([C@@H]4CC[C@H]4O)c3=O)n(C)c12 (single isomer, unassigned) [Example I-110-b]
2 | 10 to 50 nM | COc1c(Oc2cnn3ccncc23)cnc2nc(Nc3cc(C(F)(F)F)cn([C@H]4CC[C@@H]4O)c3=O)n(C)c12 (single isomer, unassigned) [Example I-113-a]
3 | 10 to 50 nM | COc1c(Oc2cnn3ccncc23)cnc2nc(Nc3cc(C(F)(F)F)cn([C@@H]4CC[C@H]4O)c3=O)n(C)c12 (single isomer, unassigned) [Example I-113-b]
4 | < 10 nM | Cn1c(Nc2cc(C3CC3)cn([C@@H]3CC[C@@H]3O)c2=O)nc2ncc(Oc3cnn4ccccc34)c(Cl)c21 (single isomer, unassigned) [Example I-114-a]
5 | < 10 nM | Cn1c(Nc2cc(C3CC3)cn([C@H]3CC[C@H]3O)c2=O)nc2ncc(Oc3cnn4ccccc34)c(Cl)c21 (single isomer, unassigned) [Example I-114-b]
6 | < 10 nM | Cn1c(Nc2cc(C(F)(F)F)cn([C@@H]3CC[C@@H]3O)c2=O)nc2ncc(Oc3cnn4ccncc34)c(Cl)c21 (single isomer, unassigned) [Example I-119-a]
7 | < 10 nM | Cn1c(Nc2cc(C(F)(F)F)cn([C@H]3CC[C@H]3O)c2=O)nc2ncc(Oc3cnn4ccncc34)c(Cl)c21 (single isomer, unassigned) [Example I-119-b]
8 | < 10 nM | COc1c(Oc2cnn3ccncc23)cnc2nc(Nc3cc(C4CC4)cn([C@@H](C)CC#N)c3=O)n(C)c12 (single isomer, unassigned) [Example I-121-a]
9 | < 10 nM | COc1c(Oc2cnn3ccncc23)cnc2nc(Nc3cc(C4CC4)cn([C@H](C)CC#N)c3=O)n(C)c12 (single isomer, unassigned) [Example I-121-b]
10 | < 10 nM | COc1c(Oc2cnn3ccccc23)cnc2nc(Nc3cc(C4CC4)cn([C@@H]4CC[C@H]4O)c3=O)n(C)c12 (single isomer, unassigned) [Example I-122-a]
11 | < 10 nM | COc1c(Oc2cnn3ccccc23)cnc2nc(Nc3cc(C4CC4)cn([C@H]4CC[C@@H]4O)c3=O)n(C)c12 (single isomer, unassigned) [Example I-122-b]
12 | < 10 nM | COc1c(Oc2cnn3ccccc23)cnc2nc(Nc3cc(C4CC4)cn([C@@H]4CC[C@@H]4O)c3=O)n(C)c12 (single isomer, unassigned) [Example I-131-a]
13 | 10 to 50 nM | COc1c(Oc2cnn3ccccc23)cnc2nc(Nc3cc(C4CC4)cn([C@H]4CC[C@H]4O)c3=O)n(C)c12 (single isomer, unassigned) [Example I-131-b]
14 | < 10 nM | Cn1cc(C2CC2)cc(Nc2nc3ncc(Oc4cnn5ccnc(O[C@@H]6CC[C@H]6O)c45)c(Cl)c3n2C)c1=O (single isomer, unassigned) [Example I-133-a]
15 | < 10 nM | Cn1cc(C2CC2)cc(Nc2nc3ncc(Oc4cnn5ccnc(O[C@H]6CC[C@@H]6O)c45)c(Cl)c3n2C)c1=O (single isomer, unassigned) [Example I-133-b]
16 | < 10 nM | Cn1cc(C(F)(F)F)cc(Nc2nc3ncc(Oc4cnn5ccnc(O[C@@H]6CC[C@H]6O)c45)c(Cl)c3n2C)c1=O (single isomer, unassigned) [Example I-139-a]
17 | < 10 nM | Cn1cc(C(F)(F)F)cc(Nc2nc3ncc(Oc4cnn5ccnc(O[C@H]6CC[C@@H]6O)c45)c(Cl)c3n2C)c1=O (single isomer, unassigned) [Example I-139-b]
18 | < 10 nM | Cn1c(Nc2cc(C(C)(C)C)n([C@H]3CC[C@H]3O)n2)nc2ncc(Oc3cnn4ccncc34)c(Cl)c21 (single isomer, unassigned) [Example I-147-a]

Row | Kd | SMILES
19 | < 10 nM | Cn1c(Nc2cc(C(C)(C)C)n([C@@H]3CC[C@@H]3O)n2)nc2ncc(Oc3cnn4ccncc34)c(Cl)c21 (single isomer, unassigned) [Example I-147-b]
20 | < 10 nM | Cn1c(Nc2cc(C3CC3)nn([C@@H]3CCCOC3)c2=O)nc2ncc(Oc3cnn4ccccc34)c(Cl)c21 (single isomer, unassigned) [Example I-148-a]
21 | 10 to 50 nM | Cn1c(Nc2cc(C3CC3)nn([C@H]3CCCOC3)c2=O)nc2ncc(Oc3cnn4ccccc34)c(Cl)c21 (single isomer, unassigned) [Example I-148-b]
22 | 10 to 50 nM | Cn1c(Nc2cc(C(C)(C)C)n([C@H]3COC[C@@H]3O)n2)nc2ncc(Oc3cnn4ccncc34)c(C#N)c21 (single isomer, unassigned) [Example I-150-a]
23 | 10 to 50 nM | Cn1c(Nc2cc(C(C)(C)C)n([C@@H]3COC[C@H]3O)n2)nc2ncc(Oc3cnn4ccncc34)c(C#N)c21 (single isomer, unassigned) [Example I-150-b]
24 | < 10 nM | CNc1nccn2ncc(Oc3cnc4nc(Nc5cc(C(F)(F)F)cn([C@H]6CCCOC6)c5=O)n(C)c4c3Cl)c12 (single isomer, unassigned) [Example I-245-a]
25 | 10 to 50 nM | CNc1nccn2ncc(Oc3cnc4nc(Nc5cc(C(F)(F)F)cn([C@@H]6CCCOC6)c5=O)n(C)c4c3Cl)c12 (single isomer, unassigned) [Example I-245-b]
26 | < 10 nM | CNc1nccn2ncc(Oc3cnc4nc(Nc5cc(C(F)(F)F)cn([C@H]6CCOC6)c5=O)n(C)c4c3Cl)c12 (single isomer, unassigned) [Example I-262-a]
27 | < 10 nM | CNc1nccn2ncc(Oc3cnc4nc(Nc5cc(C(F)(F)F)cn([C@@H]6CCOC6)c5=O)n(C)c4c3Cl)c12 (single isomer, unassigned) [Example I-262-b]
28 | 10 to 50 nM | CN1C[C@@H](F)[C@H](n2nc(Nc3nc4ncc(Oc5cnn6ccncc56)c(Cl)c4n3C)cc2C(C)(C)C)C1 (single isomer, unassigned) [Example I-267-a]
29 | 50 to 1000 nM | CN1C[C@H](F)[C@@H](n2nc(Nc3nc4ncc(Oc5cnn6ccncc56)c(Cl)c4n3C)cc2C(C)(C)C)C1 (single isomer, unassigned) [Example I-267-b]
30 | 10 to 50 nM | CNc1nccn2ncc(Oc3cnc4nc(Nc5cc(C6CCCN6C)cc(C(F)(F)F)c5)n(C)c4c3Cl)c12 (single isomer, unassigned) [Example I-269-a]
31 | 10 to 50 nM | CNc1nccn2ncc(Oc3cnc4nc(Nc5cc(C6CCCN6C)cc(C(F)(F)F)c5)n(C)c4c3Cl)c12 (single isomer, unassigned) [Example I-269-b]
32 | < 10 nM | CN1CCC[C@@H]1c1cc(Nc2nc3ncc(Oc4cnn5ccncc45)c(Cl)c3n2C)cc(C(F)(F)F)c1 (single isomer, unassigned) [Example I-270-a]
33 | < 10 nM | CN1CCC[C@H]1c1cc(Nc2nc3ncc(Oc4cnn5ccncc45)c(Cl)c3n2C)cc(C(F)(F)F)c1 (single isomer, unassigned) [Example I-270-b]
34 | < 10 nM | CNc1nccn2ncc(Oc3cnc4nc(Nc5cc(C(F)(F)F)n([C@H]6COC[C@@H]6O)n5)n(C)c4c3Cl)c12 (single isomer, unassigned) [Example I-279-a]
35 | < 10 nM | CNc1nccn2ncc(Oc3cnc4nc(Nc5cc(C(F)(F)F)n([C@@H]6COC[C@H]6O)n5)n(C)c4c3Cl)c12 (single isomer, unassigned) [Example I-279-b]
36 | 10 to 50 nM | CNc1nccn2ncc(Oc3cnc4nc(Nc5cc([C@@H]6CCOC6)nc(C(F)(F)F)c5)n(C)c4c3Cl)c12 (single isomer, unassigned) [Example I-280-a]
